As a reminder, the IC50 is the concentration needed to halve the response being measured.

Drawing on ChEMBL document CHEMBL1123407, “Synthesis of a new chemically and metabolically stable prostacyclin analogue with high and long-lasting oral activity” (J Med Chem, 1986), this text covers IC50 for three molecules.

The species entered for experiment [1] is Homo sapiens. Briefly: In vitro inhibition of collagen (0.66 ug/mL)-induced platelet aggregation in human PRP. It counts as functional.
The species entered for the next experiment is Rattus norvegicus. Nature of the experiment: In vitro inhibition of ADP (1.25 x 10E-6 M)-induced platelet aggregation in rat PRP (wistar). The format is functional.
Experiment [2] is filed under the species Homo sapiens. Nature of the experiment: In vitro inhibition of thrombin (0.1 IU/mL)-induced platelet aggregation in human PRP.
Experiment [3] is filed under the species Homo sapiens. Briefly: In vitro inhibition of ADP (0.5 x 10E-6 M)-induced platelet aggregation in human PRP.

Take `CC#CCC(C)[C@H](O)/C=C/[C@@H]1[C@H]2C/C(=C/CCCC(=O)O)C[C@H]2C[C@H]1O` (stereo not given in full) [ILOPROST]: the IC50 in the experiment filed under Homo sapiens [1] worked out at 0.39 nM; in the experiment listed under Rattus norvegicus, 11.4 nM; in the experiment listed under Homo sapiens [2] it was 0.39 nM; in the experiment filed under Homo sapiens [3], 0.82 nM.
Turning to `CCCCC[C@H](O)/C=C/[C@@H]1[C@H]2C/C(=C/CCCC(=O)O)O[C@H]2C[C@H]1O` [EPOPROSTENOL], the half-maximal inhibitory concentration (IC50) in the experiment filed under Rattus norvegicus is 2.6 nM; in the experiment listed under Homo sapiens [3], 0.66 nM.
As for `CCC#CC[C@H](C)[C@H](O)C#CC1[C@H]2C/C(=C/COCC(=O)O)CC2C[C@H]1O` (stereo not given in full), the IC50 in the experiment filed under Homo sapiens [1] stood at 0.2 nM; in the experiment listed under Rattus norvegicus, 3.2 nM; in the experiment filed under Homo sapiens [2], 0.13 nM; in the experiment listed under Homo sapiens [3], 0.64 nM.
